Assay results reported in the NIST ThermoML archive (doi:10.1016/j.jct.2017.01.011).

Test: xn = mol fraction of the nth substance listed
Details: 100 kPa, Liquid; for speed of sound: Frequency=3 MHz, Single path-length method; for mass density: Vibrating tube method

OCC(O)CO [glycerol] + CCO
Details	mass density, 283.15 K [kg/m3]	mass density, 293.15 K [kg/m3]	mass density, 303.15 K [kg/m3]	mass density, 313.15 K [kg/m3]	speed of sound, 283.15 K [m/s]	speed of sound, 293.15 K [m/s]	speed of sound, 303.15 K [m/s]	speed of sound, 313.15 K [m/s]
x2 = 0	1267	1261	1255	1248	1942.3	1922.9	1901	1879.3
x2 = 0.0999	1233	1227	1220	1214	1882.1	1852.5	1827.9	1804.6
x2 = 0.2002	1199	1193	1186	1179	1804.3	1778.9	1753.4	1729.7
x2 = 0.2998	1161	1155	1148	1140	1721.8	1696.1	1671.4	1647.2
x2 = 0.4001	1120	1113	1106	1099	1639.2	1613.3	1587.9	1562.8
x2 = 0.4993	1077	1069	1062	1055	1557.7	1530.9	1504.6	1478.5
x2 = 0.6004	1029	1021	1014	1006	1476.1	1448.4	1421.1	1394
x2 = 0.699	978	970	963	955	1401.7	1372.8	1344.2	1315.8
x2 = 0.9002	862	854	845	837	1263.5	1231.4	1199.4	1167.7

OCC(O)CO [glycerol] + CO
Details	mass density, 283.15 K [kg/m3]	mass density, 293.15 K [kg/m3]	mass density, 303.15 K [kg/m3]	mass density, 313.15 K [kg/m3]	speed of sound, 283.15 K [m/s]	speed of sound, 293.15 K [m/s]	speed of sound, 303.15 K [m/s]	speed of sound, 313.15 K [m/s]
x2 = 0	1267	1261	1255	1248	1942.3	1922.9	1901	1879.3
x2 = 0.1003	1244	1238	1232	1225	1901.8	1873	1848.8	1826.1
x2 = 0.1997	1220	1213	1207	1200	1841.5	1816.1	1792.7	1770
x2 = 0.3002	1192	1186	1179	1172	1779.2	1755.3	1732.3	1709.5
x2 = 0.4011	1158	1152	1145	1138	1708.9	1684.6	1660.7	1637.1
x2 = 0.4999	1119	1112	1105	1098	1628.4	1604	1579.6	1555.3
x2 = 0.5998	1075	1068	1060	1053	1546.5	1521.1	1495.6	1470.4
x2 = 0.7	1024	1016	1009	1001	1457.7	1430.9	1404.2	1377.6
x2 = 0.8002	964	956	947	939	1364.5	1336.1	1307.8	1279.7
x2 = 0.8999	892	883	874	865	1265.5	1234.9	1204.5	1174.5

OCC(O)CO [glycerol] + O
Details	mass density, 283.15 K [kg/m3]	mass density, 293.15 K [kg/m3]	mass density, 303.15 K [kg/m3]	mass density, 313.15 K [kg/m3]	speed of sound, 283.15 K [m/s]	speed of sound, 293.15 K [m/s]	speed of sound, 303.15 K [m/s]	speed of sound, 313.15 K [m/s]
x2 = 0	1267	1261	1255	1248	1942.3	1922.9	1901	1879.3
x2 = 0.1003	1261	1255	1249	1243	1951.7	1922	1897.9	1875.7
x2 = 0.1998	1254	1248	1242	1236	1940.9	1915.6	1893.3	1871.9
x2 = 0.3014	1246	1240	1234	1228	1931.5	1909	1888	1867.3
x2 = 0.4042	1236	1230	1224	1218	1919.2	1899.3	1879.7	1859.8
x2 = 0.5011	1224	1218	1212	1205	1903.7	1886	1867.9	1849.3
x2 = 0.6011	1206	1201	1194	1188	1879.7	1864.7	1848.8	1832
x2 = 0.7003	1183	1177	1172	1166	1841.6	1830.6	1818.2	1804.5
x2 = 0.7999	1148	1143	1137	1131	1772.9	1769.3	1763.5	1755.4
x2 = 0.9024	1091	1087	1083	1078	1648.7	1659.3	1665.8	1668.4
